{
  "source": "patent US10875875B2",
  "about": "“Propionic acid derivatives and methods of use thereof” (Aviara Pharmaceuticals, Inc., priority 2017, dated 2020)",
  "data": [
    {"biological_target": "α4β1 (Homo sapiens, UniProt P05556+P13612)", "sequence (P13612 34-1032)": "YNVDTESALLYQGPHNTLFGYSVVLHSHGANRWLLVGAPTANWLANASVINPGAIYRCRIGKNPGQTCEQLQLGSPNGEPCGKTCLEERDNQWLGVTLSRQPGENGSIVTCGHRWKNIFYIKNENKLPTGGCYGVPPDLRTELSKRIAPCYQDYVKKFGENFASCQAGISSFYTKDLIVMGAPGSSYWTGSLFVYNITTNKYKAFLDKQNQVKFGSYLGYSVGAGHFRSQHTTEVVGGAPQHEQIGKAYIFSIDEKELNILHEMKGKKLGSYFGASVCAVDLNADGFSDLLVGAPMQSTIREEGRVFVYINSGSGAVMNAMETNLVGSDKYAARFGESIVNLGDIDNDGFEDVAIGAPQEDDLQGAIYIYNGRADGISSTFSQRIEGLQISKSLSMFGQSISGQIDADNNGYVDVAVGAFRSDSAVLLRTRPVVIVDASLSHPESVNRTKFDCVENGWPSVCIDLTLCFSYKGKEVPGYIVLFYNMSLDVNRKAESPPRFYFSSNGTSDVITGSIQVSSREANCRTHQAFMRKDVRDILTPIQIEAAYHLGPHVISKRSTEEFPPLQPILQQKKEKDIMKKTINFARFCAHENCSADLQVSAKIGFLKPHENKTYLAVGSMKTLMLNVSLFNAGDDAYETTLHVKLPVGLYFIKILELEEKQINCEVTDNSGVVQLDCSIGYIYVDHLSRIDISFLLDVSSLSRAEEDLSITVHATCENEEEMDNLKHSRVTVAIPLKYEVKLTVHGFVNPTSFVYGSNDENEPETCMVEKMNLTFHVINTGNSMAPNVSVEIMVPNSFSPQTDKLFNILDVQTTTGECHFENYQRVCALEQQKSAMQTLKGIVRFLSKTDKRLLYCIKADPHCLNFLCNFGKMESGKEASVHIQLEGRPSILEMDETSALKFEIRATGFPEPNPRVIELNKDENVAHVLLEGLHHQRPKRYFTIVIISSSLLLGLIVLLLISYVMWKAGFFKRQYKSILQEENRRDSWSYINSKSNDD", "sequence (P05556 21-798)": "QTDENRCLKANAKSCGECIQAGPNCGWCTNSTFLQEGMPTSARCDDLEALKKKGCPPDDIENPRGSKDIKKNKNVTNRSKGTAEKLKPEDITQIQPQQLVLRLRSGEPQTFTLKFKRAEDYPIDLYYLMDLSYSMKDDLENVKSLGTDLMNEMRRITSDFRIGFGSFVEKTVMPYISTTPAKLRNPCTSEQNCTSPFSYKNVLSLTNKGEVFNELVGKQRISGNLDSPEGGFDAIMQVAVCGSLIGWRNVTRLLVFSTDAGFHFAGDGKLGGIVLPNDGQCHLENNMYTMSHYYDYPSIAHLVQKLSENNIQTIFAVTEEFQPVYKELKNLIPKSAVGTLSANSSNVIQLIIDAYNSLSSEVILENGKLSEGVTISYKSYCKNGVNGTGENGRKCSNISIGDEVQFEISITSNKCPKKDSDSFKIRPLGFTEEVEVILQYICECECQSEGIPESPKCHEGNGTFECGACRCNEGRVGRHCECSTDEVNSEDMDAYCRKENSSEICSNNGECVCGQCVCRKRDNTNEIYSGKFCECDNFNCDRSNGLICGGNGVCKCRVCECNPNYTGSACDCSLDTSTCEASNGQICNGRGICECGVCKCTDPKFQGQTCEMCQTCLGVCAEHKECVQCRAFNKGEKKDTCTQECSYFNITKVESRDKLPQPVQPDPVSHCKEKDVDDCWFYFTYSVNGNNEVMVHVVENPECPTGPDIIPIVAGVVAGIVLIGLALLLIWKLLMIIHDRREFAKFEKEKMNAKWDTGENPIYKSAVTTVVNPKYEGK", "experiment": "α4β1 integrin inhibition, IC50", "format": "binding", "settings": "integrin not named at the place; read-out: IC50", "units": {"IC50": "nM"}, "values": [
      {"smiles": "Cc1cn(C)c(=O)c(NC(=O)N[C@@H](CC(=O)O)c2cccc(-c3ccccc3)c2)c1O", "note": "[1-437, sodium (S)-3-(biphenyl-3-yl)-3-(3-(1,5-dimethyl-4-oxido-2-oxo-1,2-dihydropyridin-3-yl)ureido)propanoate]", "IC50": "< 20"}
    ]},
    {"biological_target": "α4β1 (Homo sapiens, UniProt P05556+P13612)", "experiment": "α4β1 integrin inhibition, IC50", "format": "binding", "settings": "read-out: α4β1 IC50", "units": {"IC50": "nM"}, "values": [
      {"smiles": "CCn1cc(C)c(O)c(NC(=O)N[C@@H](CC(=O)O)c2cccc(-c3ccccc3)c2)c1=O", "note": "[1-438, sodium (S)-3-(biphenyl-3-yl)-3-(3-(1-ethyl-5-methyl-4-oxido-2-oxo-1,2-dihydropyridin-3-yl)ureido)propanoate]", "IC50": "< 200"},
      {"smiles": "CCn1cc(C)c(O)c(NC(=O)NC(CC(=O)O)c2cccc(-n3cccc(-c4ccccc4)c3=O)c2)c1=O", "note": "(stereo not drawn) [1-439, sodium 3-(3-(1-ethyl-5-methyl-4-oxido-2-oxo-1,2-dihydropyridin-3-yl)ureido)-3-(3-(2-oxo-3-phenylpyridin-1(2H)-yl)phenyl)propanoate]", "IC50": "> 200"},
      {"smiles": "Cc1ccccc1-c1cccc([C@H](CC(=O)O)NC(=O)Nc2c(O)c(C)cn(C)c2=O)c1", "note": "[1-440, sodium (S)-3-(3-(1,5-dimethyl-4-oxido-2-oxo-1,2-dihydropyridin-3-yl)ureido)-3-(2′-methylbiphenyl-3-yl)propanoate]", "IC50": "< 200"},
      {"smiles": "Cc1cn(C)c(=O)c(NC(=O)N[C@@H](CC(=O)O)c2cccc(-c3ccccc3F)c2)c1O", "note": "[1-441, sodium (S)-3-(3-(1,5-dimethyl-4-oxido-2-oxo-1,2-dihydropyridin-3-yl)ureido)-3-(2′-fluorobiphenyl-3-yl)propanoate]", "IC50": "< 20"},
      {"smiles": "Cc1cn(C)c(=O)c(NC(=O)N[C@@H](CC(=O)O)c2ccc(F)c(-c3ccccc3)c2)c1O", "note": "[1-442, sodium (S)-3-(3-(1,5-dimethyl-4-oxido-2-oxo-1,2-dihydropyridin-3-yl)ureido)-3-(6-fluorobiphenyl-3-yl)propanoate]", "IC50": "< 20"},
      {"smiles": "CCn1cc(C)c(O)c(NC(=O)N[C@@H](CC(=O)O)c2cccc(-c3ccccc3C)c2)c1=O", "note": "[1-443, sodium (S)-3-(3-(1-ethyl-5-methyl-4-oxido-2-oxo-1,2-dihydropyridin-3-yl)ureido)-3-(2′-methylbiphenyl-3-yl)propanoate]", "IC50": "< 200"},
      {"smiles": "CCn1cc(C)c(O)c(NC(=O)N[C@@H](CC(=O)O)c2cccc(-c3ccc(C)cc3)c2)c1=O", "note": "[1-444, sodium (S)-3-(3-(1-ethyl-5-methyl-4-oxido-2-oxo-1,2-dihydropyridin-3-yl)ureido)-3-(4′-methylbiphenyl-3-yl)propanoate]", "IC50": "< 200"},
      {"smiles": "Cc1cn(C)c(=O)c(NC(=O)NC(CC(=O)O)c2cccc(-n3cccc3)c2)c1O", "note": "(stereo not drawn) [1-445, sodium 3-(3-(1H-pyrrol-1-yl)phenyl)-3-(3-(1,5-dimethyl-4-oxido-2-oxo-1,2-dihydropyridin-3-yl)ureido)propanoate]", "IC50": "< 200"},
      {"smiles": "Cc1cn(C)c(=O)c(NC(=O)N[C@@H](CC(=O)O)c2cccc(-c3ccc(F)cc3F)c2)c1O", "note": "[1-446, sodium (S)-3-(2′,4′-difluorobiphenyl-3-yl)-3-(3-(1,5-dimethyl-4-oxido-2-oxo-1,2-dihydropyridin-3-yl)ureido)propanoate]", "IC50": "< 20"},
      {"smiles": "Cc1cn(C)c(=O)c(NC(=O)N[C@@H](CC(=O)O)c2cccc(-c3cc(F)ccc3F)c2)c1O", "note": "[1-447, sodium (S)-3-(2′,5′-difluorobiphenyl-3-yl)-3-(3-(1,5-dimethyl-4-oxido-2-oxo-1,2-di hydropyridin-3-yl)ureido)propanoate]", "IC50": "< 20"},
      {"smiles": "Cc1ccc([C@H](CC(=O)O)NC(=O)Nc2c(O)c(C)cn(C)c2=O)cc1-c1ccccc1", "note": "[1-448, sodium (S)-3-(3-(1,5-dimethyl-4-oxido-2-oxo-1,2-dihydropyridin-3-yl)ureido)-3-(6-methylbiphenyl-3-yl)propanoate]", "IC50": "< 200"},
      {"smiles": "COc1ccc([C@H](CC(=O)O)NC(=O)Nc2c(O)c(C)cn(C)c2=O)cc1-c1ccccc1", "note": "[1-449, sodium (S)-3-(3-(1,5-dimethyl-4-oxido-2-oxo-1,2-dihydropyridin-3-yl)ureido)-3-(6-methoxybiphenyl-3-yl)propanoate]", "IC50": "< 200"},
      {"smiles": "Cc1ccc(-c2cccc([C@H](CC(=O)O)NC(=O)Nc3c(O)c(C)cn(C)c3=O)c2)cc1", "note": "[1-450, sodium (S)-3-(3-(1,5-dimethyl-4-oxido-2-oxo-1,2-dihydropyridin-3-yl)ureido)-3-(4′-methylbiphenyl-3-yl)propanoate]", "IC50": "< 200"},
      {"smiles": "Cc1cccc(-c2cccc([C@H](CC(=O)O)NC(=O)Nc3c(O)c(C)cn(C)c3=O)c2)c1", "note": "[1-451, sodium (S)-3-(3-(1,5-dimethyl-4-oxido-2-oxo-1,2-dihydropyridin-3-yl)ureido)-3-(3′-methylbiphenyl-3-yl)propanoate]", "IC50": "< 200"},
      {"smiles": "Cc1cn(C)c(=O)c(NC(=O)N[C@@H](CC(=O)O)c2cccc(-c3cccnc3)c2)c1O", "note": "[1-452, sodium (S)-3-(3-(1,5-dimethyl-4-oxido-2-oxo-1,2-dihydropyridin-3-yl)ureido)-3-(3-(pyridin-3-yl)phenyl)propanoate]", "IC50": "< 200"},
      {"smiles": "Cc1cn(C)c(=O)c(NC(=O)N[C@@H](CC(=O)O)c2cccc(-c3cc(F)cc(F)c3)c2)c1O", "note": "[1-453, sodium (S)-3-(3′,5′-difluorobiphenyl-3-yl)-3-(3-(1,5-dimethyl-4-oxido-2-oxo-1,2-di hydropyridin-3-yl)ureido)propanoate]", "IC50": "< 20"},
      {"smiles": "Cc1cc(C)cc(-c2cccc([C@H](CC(=O)O)NC(=O)Nc3c(O)c(C)cn(C)c3=O)c2)c1", "note": "[1-454, sodium (S)-3-(3-(1,5-dimethyl-4-oxido-2-oxo-1,2-dihydropyridin-3-yl)ureido)-3-(3′,5′-dimethylbiphenyl-3-yl)propanoate]", "IC50": "< 200"},
      {"smiles": "COc1ccccc1-c1cccc([C@H](CC(=O)O)NC(=O)Nc2c(O)c(C)cn(C)c2=O)c1", "note": "[1-456, sodium (S)-3-(3-(1,5-dimethyl-4-oxido-2-oxo-1,2-dihydropyridin-3-yl)ureido)-3-(2′-methoxybiphenyl-3-yl)propanoate]", "IC50": "< 200"},
      {"smiles": "Cc1cn(C)c(=O)c(NC(=O)N[C@@H](CC(=O)O)c2cccc(-c3ccc(F)c(F)c3)c2)c1O", "note": "[1-458, sodium (S)-3-(3′,4′-difluorobiphenyl-3-yl)-3-(3-(1,5-dimethyl-4-oxido-2-oxo-1,2-di hydropyridin-3-yl)ureido)propanoate]", "IC50": "< 20"},
      {"smiles": "Cc1ccc(C)c(-c2cccc([C@H](CC(=O)O)NC(=O)Nc3c(O)c(C)cn(C)c3=O)c2)c1", "note": "[1-459, sodium (S)-3-(3-(1,5-dimethyl-4-oxido-2-oxo-1,2-dihydropyridin-3-yl)ureido)-3-(2′,5′-dimethylbiphenyl-3-yl)propanoate]", "IC50": "< 20"},
      {"smiles": "COc1cccc(-c2cccc([C@H](CC(=O)O)NC(=O)Nc3c(O)c(C)cn(C)c3=O)c2)c1", "note": "[1-460, sodium (S)-3-(3-(1,5-dimethyl-4-oxido-2-oxo-1,2-dihydropyridin-3-yl)ureido)-3-(3′-methoxybiphenyl-3-yl)propanoate]", "IC50": "< 200"},
      {"smiles": "Cc1cccc(-c2cccc([C@H](CC(=O)O)NC(=O)Nc3c(O)c(C)cn(C)c3=O)c2)c1C", "note": "[1-462, sodium (S)-3-(3-(1,5-dimethyl-4-oxido-2-oxo-1,2-dihydropyridin-3-yl)ureido)-3-(2′,3′-dimethylbiphenyl-3-yl)propanoate]", "IC50": "< 200"},
      {"smiles": "Cc1cn(C)c(=O)c(NC(=O)NC(CC(=O)O)c2ccc(=O)n(-c3ccccc3)c2)c1O", "note": "(stereo not drawn) [1-463, sodium 3-(3-(1,5-dimethyl-4-oxido-2-oxo-1,2-dihydropyridin-3-yl)ureido)-3-(6-oxo-1-phenyl-1,6-dihydropyridin-3-yl)propanoate]", "IC50": "< 200"}
    ]}
  ]
}
